Measurements published in patent publication US20240366607A1, “COMPOSITION FOR PREVENTION OR TREATMENT OF ATOPIC DERMATITIS COMPRISING AKT SIGNALING PATHWAY INHIBITOR AS ACTIVE INGREDIENT” (priority 2021, published 2024).

What was measured:
[1] = system: T cells in the spleen; test: FACS of T cell fractions in spleen of atopic dermatitis mouse model; format: in vivo
Method: (§1) Atopic skin lesions were induced in NC/Nga mice by treatment with HDM three times a week until 4 weeks after the start of the experiment, and then each mouse was treated with ipatasertib and/or 0.1% dexamethasone (200 μL) three times a week for another four weeks (FIG. 3). Control groups consisted of a non-HDM-treated group (3 animals), a HDM-treated group (3 animals), and a HDM-and 0.1% dexamethasone-treated group (3 animals, positive control group), and experimental groups were administered ipatasertib after HDM treatment. Then, in order to check changes in skin-specific T cells in each animal, single suspensions were prepared using the spleen, skin, and lymph nodes, and T-cells were stained using anti-CD3, anti-CD4, anti-CD8, and CD45 antibodies. Flow cytometry was performed on skin-specific T cells using anti-CD69 and anti-CD103 antibodies, thereby observing the changes in number and distribution of skin-specific T cells by the application of the drug.

[2] = system: NC/Nga mice with induced atopic dermatitis; test: HDM-induced atopic dermatitis in NC/Nga mice: skin lesions and SCORAD index; format: in vivo, mouse
Method: NC/Nga mice showing clinical and histological phenotypes similar to atopic dermatitis were used. To prepare atopic dermatitis animal models, atopic skin lesions were induced by treating mice with house dust mites (HDM), a representative trigger/aggravator of atopic dermatitis (FIG. 2).
as §1
To evaluate the effect of ipatasertib administration in NC/Nga mice with induced atopic dermatitis, atopic dermatitis was induced by applying house dust mite (HDM) ointment to the mouse's back three times a week for 4 weeks, and then ipatasertib drug was applied to the mouse's back three times a week for another 4 weeks. […] Each score was obtained by the Wilcoxon signed-rank test, and P<0.05 was considered statistically significant. Three mice per group were tested.

[3] = system: normal skin tissue; test: MTT assay, cell viability in normal skin tissue; format: cell-based; settings: for cell viability: normal skin tissue
Method: To determine the final concentration of the drug ipatasertib, normal skin tissue was seeded in a 96-well plate, and treated with ipatasertib at varying concentrations of 1 μM, 10 μM, 50 μM, 100 μM, and 200 μM. The safety and toxicity of the drug to the normal skin tissue were evaluated by measuring the absorbance at 540 nm.

[4] = system: T cells in skin-draining lymph nodes; test: FACS of T cell fractions in skin-draining lymph nodes of atopic dermatitis mouse model; format: in vivo
Method: as §1

[5] = system: skin-specific T cells; test: FACS of T cells using skin immune cells and skin lesions of atopic dermatitis patients; format: cell-based, human
Method: To verify the effect of the candidate drug on skin-specific T cells in human skin tissue, a single suspension was prepared using the skin from an atopic dermatitis patient. T cells were stained using anti-CD3, anti-CD4, anti-CD8 and anti-CD45 antibodies, and flow cytometry was performed on skin-specific T cells using anti-CD69 and anti-CD103 antibodies, thereby observing the changes in number and distribution of skin-specific T cells by the application of the drug.

[6] = system: skin tissue of NC/Nga mice; test: H&E staining of skin tissue of HDM-treated NC/Nga mice (eosinophil count, epidermal thickness); format: in vivo, mouse
Method: Data are expressed as mean±standard deviation (SD). **P<0.01, *P<0.05.
as §1
Patients with allergic diseases often have a blood eosinophil count that increased by more than 5%, and based on this fact, eosinophils were counted by hematoxylin and eosin (H&E) staining. […] In addition, when atopic dermatitis occurs, the skin thickens due to an excessive inflammatory response.

[7] = system: serum total IgE; test: Serum total IgE by ELISA in atopic dermatitis mouse model; format: in vivo
Method: as §1
(§2) Blood was collected from the mouse heart, and then serum total DF-specific IgE (ng/mL) (A450) was measured in a 96-well plate (Corning Inc., Corning, NY, USA) using the ELISA MAX™ Delux Set (BioLegend, San Diego, CA, USA) kit.
The changes in serum total IgE levels in atopic dermatitis mouse models by ipatasertib treatment were measured. […]

[8] = system: human T cells in the skin of the avatar mouse; test: Human T cell fractions in the skin of the avatar mouse; format: in vivo
Method: (§3) PBMCs were obtained from blood samples isolated from atopic dermatitis patients, and then CD3+ T cells, which are pathogenic cells, and CD3-depleted PBMCs, which are antigen-presenting cells, were separated therefrom. Human PBMC cells obtained by this method were injected into an immunodeficient NSG mouse by two different routes of administration. That is, avatar mice were prepared by injecting CD3+ T cells, which are pathogenic cells, through intravenous injection, and CD3-depleted PBMCs through intradermal injection. After the hair on the back of the prepared avatar mouse was shaved, dead skin cells were removed using 3M film once every three days, and 100 mg of house dust mite ointment was applied to the back of the mouse for three weeks. Then, from week 4, the mouse was treated with house dust mite ointment plus ipatasertib to evaluate the therapeutic effect of ipatasertib (FIG. 14A).

[9] = system: humanized avatar mouse model; test: Therapeutic effect in humanized avatar mouse model with HDM-induced atopic dermatitis; format: in vivo; settings: applied to the back three times a week for one week after three weeks HDM
Method: as §3

[10] = system: DF-specific IgE; test: Serum total DF-specific IgE by ELISA in atopic dermatitis mouse model; format: in vivo; settings: 100 μM
Method: as §1, §2
House dust mites are a common cause of allergy, and based on this fact, DF-specific IgE was measured.

[11] = system: skin-specific T cells in the skin; test: FACS of skin-specific T cell fractions in skin of atopic dermatitis mouse model; format: in vivo
Method: as §1

[12] = 100 μM, compared to 0.1% dexamethasone group

CC(C)NC[C@@H](C(=O)N1CCN(c2ncnc3c2[C@H](C)C[C@H]3O)CC1)c1ccc(Cl)cc1 [ipatasertib]
CD69+ T cells and CD103+ T cells [1]: decreased statistically significantly | proportion of CD3+ and CD4+ T cells [1]: decreased in a dose-dependent manner | recovery of skin lesions ([2]; 100 μM, applied to the back three times a week for 4 weeks): most notable recovery | scoring atopic dermatitis (SCORAD) index [2, 12]: lower SCORAD index than the 0.1% dexamethasone-administered group | therapeutic effect on atopic dermatitis skin lesions ([2]; applied to the back three times a week for 4 weeks after 4 weeks HDM): significant therapeutic effect was observed in a drug concentration-dependent manner | wounds, dryness, and shedding ([2]; compared to positive control 0.1% dexamethasone): significantly reduced compared to the positive control group administered 0.1% dexamethasone | scoring atopic dermatitis (SCORAD) index ([2]; ipatasertib-administered groups, three mice per group): significantly decreased | cell viability ([3]; 50 μM): ≥ 90% | cell viability ([3]; 100 μM): ≥ 90% | toxicity in normal skin tissue ([3]; up to 100 μM): no significant toxicity | fraction of T cells expressing CD69 among CD3+ CD4+ T cells [4]: tended to decrease | fraction of CD3+ CD4+ CD103+ T cells ([4]; 100 μM): statistically significantly lowest | proportion of CD3+ T cells ([4]; 100 μM): lowest proportion of CD3+ T cells | proportion of skin-specific T cells ([5]; 50 μM): significantly decreased | proportion of skin-specific T cells ([5]; 100 μM): significantly decreased | eosinophil count [6]: decreased depending on the ipatasertib concentration | epidermal thickness [6]: decreased as the concentration of ipatasertib increased | decrease in the total serum IgE level [7, 12]: significantly greater | serum total IgE level ([7]; ELISA, ipatasertib groups up to 100 μM): decreased in a dose-dependent manner | proportion of human CD3 T cells ([8]; 100 μM, compared to control group): significantly decreased compared to that in the control group | proportions of human CD8 and CD4 cells ([8]; drug-treated group): significantly lower | therapeutic effect against atopic dermatitis [9]: clinically significant therapeutic effect | total DF-specific IgE level [10]: significantly decreased | total DF-specific IgE level ([10]; compared to 0.1% dexamethasone group): significantly decreased even compared to that in the 0.1% dexamethasone group | proportions of CD3+, CD4+, CD69+, and CD103+ skin-specific T cells ([11]; 50 μM, skin): significantly decreased | proportions of CD3+, CD4+, CD69+, and CD103+ skin-specific T cells ([11]; 100 μM, skin): significantly decreased | CD69+ T cells and CD103+ T cells ([11]; skin tissues of the ipatasertib groups): statistically significantly decreased | proportions of skin-specific T cells ([11]; skin, compared to 0.1% dexamethasone-treated group): significantly decreased even compared to that in the 0.1% dexamethasone-treated group
